Results taken from patent US20030220310A1, “Epoxy-steroidal aldosterone antagonist and calcium channel blocker combination therapy for treatment of congestive heart failure” (priority 2003, published 2003).

What was measured:
[1] = Thermogravimetric analysis of solvates (desolvation); format: physicochemical; details: eplerenone crystalline solvate; extrapolated from final solvent weight loss step, TGA, 10° C./minute, nitrogen purge
Method: Thermogravimetric analysis of solvates was performed using a TA Instruments TGA 2950 thermogravimetric analyzer. Samples were placed in an unsealed aluminum pan under nitrogen purge. Starting temperature was 25° C. with the temperature increased at a rate of about 10° C./minute.

[2] = Single crystal X-ray structure, unit cell parameters; format: physicochemical; details: for Isostructural to Methyl Ethyl ketone Solvate?: eplerenone crystalline solvate; for R: crystal structure determination; for Volume / ρ (calculated): unit cell; for Z / a / b / c / α / β / γ: unit cell parameter
Excerpt: Tables 8, 9 and 10 below summarize the unit cell parameters determined for Form H, Form L, and several solvated crystalline forms. […]

[3] = tested on: myocardial fibrosis in animal models; details: cited from earlier work

Row | SMILES | Desolvation Temperature [1] [°C] | Isostructural to Methyl Ethyl ketone Solvate? [2] | also measured
1 | CC(=O)OC(C)(C)C [t-Butyl Acetate] | 109 | Yes | –
2 | C1CCOC1 [Tetrahydrofuran] | 136 | Yes | –
3 | CCO [Ethanol] | 166 | Yes | –
4 | CCCCCCCCO [n-Octanol] | 116 | Yes | –
5 | Cc1ccccc1 [Toluene] | 83 | Yes | –
6 | ClC(Cl)Cl [Chloroform] | 125 | Yes | –
7 | CCC(C)=O [Methyl Ethyl Ketone] | 89 | – | –
8 | COC(=O)[C@@H]1CC23O[C@@H]2C(=O)CC[C@]3(C)[C@@]23OC2C[C@@]2(C)C(CCC24CCC(=O)O4)C13 (stereo partly drawn) [diepoxide, 7-methyl hydrogen 4α,5α:9α,11α-diepoxy-17-hydroxy-3-oxo-17α-pregnane-7α,21-dicarboxylate, γ-lactone] | – | – | R [2]: 0.0762; Volume [2]: 2119.0 Å; ρ (calculated) [2]: 1.349 g/mL; Z [2]: 4; a [2]: 21.328 Å Å; b [2]: 16.16 Å Å; c [2]: 6.15 Å Å; α [2]: 90°; β [2]: 90°; γ [2]: 90°
9 | CC(C)O [Isopropanol] | 121 | Yes | –
10 | CC(=O)S[C@@H]1CC2=CC(=O)CC[C@]2(C)[C@H]2CC[C@@]3(C)[C@@H](CC[C@@]34CCC(=O)O4)[C@H]12 [spironolactone] | – | – | myocardial fibrosis [3]: prevents myocardial fibrosis
11 | CCCO [n-Propanol] | – | Yes | –
12 | COC(C)=O [Methyl Acetate] | 103 | Yes | –
13 | CC(C)=O [Acetone] | 117 | Yes | –
14 | CC(=O)OCC(C)C [Isobutyl Acetate] | 112 | Yes | –
15 | CCCOC(C)=O [Propyl Acetate] | 130 | Yes | –
16 | CCCCOC(C)=O [Butyl Acetate] | 108 | Yes | –
17 | COC(=O)[C@@H]1CC2=CC(=O)CC[C@]2(C)C2=CC[C@@]3(C)C(CCC34CCC(=O)O4)C21 (stereo partly drawn) [9,11 olefin] | – | – | R [2]: 0.0764; Volume [2]: 2069.3 Å; ρ (calculated) [2]: 1.279 g/mL; Z [2]: 4; a [2]: 20.90 Å Å; b [2]: 15.74 Å Å; c [2]: 6.29 Å Å; α [2]: 90°; β [2]: 90°; γ [2]: 90°
18 | CCCCO [n-Butanol] | 103 | Yes | –
19 | CCOC(=O)CC [Ethyl Propionate] | 122 | Yes | –
20 | CC(=O)O [Acetic Acid] | – | Yes | –
21 | CC(O)CO (stereo not drawn) [Propylene Glycol] | 188 | Yes | –
